Measurements: patent publication US20090269409A1, “PHARMACEUTICAL COMPOSITIONS COMPRISING ESZOPICLONE” (priority 2008, published 2009)
In brackets after ≈: the same amount, converted by molar mass. Like-named read-outs stand apart in the source and are kept apart here.

How the values were obtained:
[1] = Saturated solubility of eszopiclone in various solvents (shake flask, HPLC); format: physicochemical; conditions: thermodynamic from solid, room temperature
Method: 1) 100 mL of the solvent was placed into a 250 mL volumetric flask.
2) 10 mg of eszopiclone was added to the flask.
3) The flask contents were mixed for 24 hours using a rotary shaker to dissolve the eszopiclone completely.
4) Eszopiclone was added at room temperature to the clear solution of 3) in small amounts (up to about 100 mg) until undissolved eszopiclone was noted after shaking.
5) The flask was subjected to shaking for an additional 24 hours.
6) Presence of insoluble eszopiclone was checked and the pH of the solution was recorded.
7) A portion of step 6) solution was subjected to centrifugation until a clear solution was obtained, and/or was filtered through an ASTM #40 mesh sieve.
8) Content of the drug substance was determined using HPLC, comparing with a standard solution prepared preferably in the same solvent.
9) Amount of the drug substance dissolved was calculated as a percentage (weight/volume): […]
The actual amount of drug substance dissolved in mg is:
The solubility of the drug substance in mg/ml in the solvent medium tested is: S=m÷100.
Saturated solubility was determined in solvents as described below.

[2] = Excipient compatibility and stability study of eszopiclone/excipient mixtures (impurity analysis before and after storage); format: physicochemical
Method: 1) Eszopiclone and excipient in the stated ratios were mixed well and sifted through an ASTM #40 mesh sieve.
2) The mixture was placed into 20 mL amber glass vials and stored under conditions of 40° C. and 75% relative humidity (RH), or at 50° C., for 1 month. Impurity analyses were performed before and after storage, and values in the table below are percentages of the initial eszopiclone content.

[3] = Observed susceptibility of eszopiclone to degradation; format: physicochemical; conditions: with significant increase in the 5-chloro-2-aminopyridine content
[4] = cited from earlier work
[5] = 1 Month, 40° C./75% RH, amber glass vials
[6] = 1 Month, 50° C., amber glass vials

In the case of CN1CCN(C(=O)O[C@H]2c3nccnc3C(=O)N2c2ccc(Cl)cn2)CC1 [Eszopiclone, (+)-(5S)-6-(5-chloropyridin-2-yl)-7-oxo-6,7-dihydro-[3,4-b]pyrazin-5-yl-4-methylpiperazine-1-carboxylate], the solubility at 24 h ([1]; aqueous buffer, Acetate buffer (pH 4.5)) was 11600 µg/mL (≈ 29.9 mM), the solubility at 24 h ([1]; aqueous buffer, Phosphate buffer (pH 6.8)) was 680 µg/mL (≈ 1.75 mM) and the solubility at 24 h ([1]; aqueous buffer, Phosphate buffer (pH 7.5)) was 330 µg/mL (≈ 0.849 mM). It also gave a solubility at 24 h ([1]; aqueous with cosolvent or surfactant or cyclodextrin, 0.5% Sodium lauryl sulphate in water) of 1830 µg/mL (≈ 4.71 mM), a solubility at 24 h ([1]; simulated gastric fluid, 0.01N HCl) of 4180 µg/mL (≈ 10.8 mM) and a solubility at 24 h ([1]; simulated gastric fluid, 0.1N Hydrochloric acid (pH 1.2)) of 39100 µg/mL (≈ 101 mM). It also gave a solubility at 24 h ([1]; simulated gastric fluid, Acid buffer (pH 1), potassium chloride/HCl) of 23000 µg/mL (≈ 59.2 mM), a solubility at 24 h ([1]; Simulated gastric fluid (pH 1.2)) of 8180 µg/mL (≈ 21 mM) and a solubility at 24 h ([1]; Water) of 300 µg/mL (≈ 0.772 mM). For the same compound, the “Imp (5-chloro-2-aminopyridine)” value [2, 5] was 0.47 percentages of the initial eszopiclone content, the “T.I. (Total impurities)” value [2, 5] was 0.33 percentages of the initial eszopiclone content and the “Imp (5-chloro-2-aminopyridine)” value [2, 6] was 0.35 percentages of the initial eszopiclone content. The “T.I. (Total impurities)” value [2, 6] was 0.5 percentages of the initial eszopiclone content, the “Imp (5-chloro-2-aminopyridine)” value ([2]; Initial) was 0.01 percentages of the initial eszopiclone content and the “T.I. (Total impurities)” value ([2]; Initial) was 0.02 percentages of the initial eszopiclone content. The “Susceptibility to oxidative degradation (including by atmospheric oxygen) and acid hydrolysis” value [3] was “highly susceptible”, the “Solubility (descriptive)” value ([4]; in ethanol) was “slightly soluble” and the “Solubility (descriptive)” value ([4]; in phosphate buffer of pH 3.2) was “soluble”. For the same compound, the “Solubility (descriptive)” value ([4]; in water) was “very slightly soluble”.
